Experimental data as given in the RepoRT retention time repository (doi:10.1038/s41596-020-0341-5).

assay: RP, Waters ACQUITY UPLC BEH C8, 100 × 2.1 mm, 1.7 µm, 50 °C, 0.35 mL/min, estimated dead time 0.63 min; A: water + 0.1% formic acid; B: acetonitrile + 0.1% formic acid; gradient (min/%B) 0/5 1/5 24/100 28/100; conditions: stereoisomer not certain

| Structure (SMILES) | LC retention time [min] |
| --- | --- |
| O=c1[nH]cnc2nc[nH]c12 | 1.02 |
| CC12CCC(=O)C=C1CCC1C2C(O)CC2(C)C1CCC2(O)C(=O)CO (centres undefined) | 7.77 |
| NC(=O)CCC(NC(=O)Cc1ccccc1)C(=O)O (centres undefined) | 3.67 |
| CC(C)CC(NC(=O)C1CCCN1)C(=O)O (centres undefined) | 1.12 |
| Nc1nc2ccc(C(=O)c3ccccc3)cc2[nH]1 | 5.28 |
| Cc1cc2nc3c(=O)[nH]c(=O)nc-3n(CC(O)C(O)C(O)CO)c2cc1C (centres undefined) | 3.85 |
| CCCCCCC=CCCCCCCCCCCOCC(O)COP(=O)([O-])OCC[N+](C)(C)C (centres undefined) | 14.4 |
| O=Cc1ccc(O)cc1 | 1.03 |
| CC(C)CCCC(C)C1CCC2C3C(=O)C=C4CC(O)CCC4(C)C3CCC12C (centres undefined) | 19.4 |
| Cn1c(=O)[nH]c2ncn(C)c2c1=O | 2.28 |
| CCCCCC=CCC=CCC=CCCCCCCC(=O)OCC(O)COP(=O)([O-])OCC[N+](C)(C)C (centres undefined) | 15.9 |
| NC(Cc1ccccc1)C(=O)N1CCCC1C(=O)O (centres undefined) | 4.18 |
| CC(CCC(=O)NCC(=O)O)C1CCC2C3C(O)C(O)C4CC(O)CCC4(C)C3CCC12C (centres undefined) | 9.97 |
| O=C(O)C(O)c1ccc(O)c(O)c1 (centres undefined) | 13.9 |
| NCCc1c[nH]c2ccc(O)cc12 | 1.02 |
| CCCCCCCCCCCCCCC=CCCCCCCCCCC(=O)OC(CC(=O)O)C[N+](C)(C)C (centres undefined) | 19.1 |
| CCC=CCC=CCC=CCC=CCC=CCC=CCCC(=O)O | 17.8 |
| O=CCC(O)C(O)C(O)CO (centres undefined) | 0.783 |
| O=C(CO)CO | 1.6 |
| CCC=CCC=CCC=CCC=CCC=CCCCC(=O)OCC(COP(=O)([O-])OCC[N+](C)(C)C)OC(=O)CCCC=CCC=CCC=CCCCCCCCC (centres undefined) | 22 |
| C1CCNC1 | 1.03 |
| O=C(O)C=Cc1ccccc1 | 1.6 |
| O=C(O)C(O)Cc1c[nH]c2ccccc12 (centres undefined) | 5.17 |
| CCCCOC(=O)c1ccccc1C(=O)OCCCC | 15.7 |
| CCCCCCCCCCCCCCCCCCCCCCCCCC(=O)OC(CC(=O)O)C[N+](C)(C)C (centres undefined) | 19.8 |
| CC(C)CC(NC(=O)CCC([NH3+])C(=O)[O-])C(=O)[O-] (centres undefined) | 3.05 |

More lines, now with the values ahead:

| LC retention time [min] | Structure (SMILES) |
| --- | --- |
| 17.1 | CCCCCCCCCCCCCCCCCCCC(=O)OC(CC(=O)O)C[N+](C)(C)C (centres undefined) |
| 16.9 | CCCCCCCCC=CCCCCCCCC(=O)NCCO |
| 18.4 | CCCCCC=CCC=CCC=CCCCCCCC(=O)O |
| 15.2 | CCCCCCC=CCCCCCCCCCC(=O)OC(CC(=O)O)C[N+](C)(C)C (centres undefined) |
| 6.8 | CCCC=CCCC(=O)OC(CC(=O)O)C[N+](C)(C)C (centres undefined) |
| 0.8 | CCCCCCC(N)C(=O)O (centres undefined) |
| 16.9 | CCCCCCCCCCCCCCCC(N)=O |
| 13.2 | CCCCCCCCC=CCC=CCCC(=O)OC(CC(=O)O)C[N+](C)(C)C (centres undefined) |
| 18.4 | CCCCCCCCCCCCCCCC(=O)O |
| 1.02 | CSCCC(N)C(=O)O (centres undefined) |
| 19 | CCCCCCCCCCCCCCCCCCCCCCCC(=O)OC(CC(=O)O)C[N+](C)(C)C (centres undefined) |
| 17.9 | CCCCCC=CCC=CCC=CCC=CCCCC(=O)O |
| 17.1 | CCC=CCC=CCC=CCCCCCCCC(=O)O |
| 14.4 | CCCCCC=CC=CCCCCCCCCC(=O)OC(CC(=O)O)C[N+](C)(C)C (centres undefined) |
| 13.9 | CCCCCCCCC=CCCCCCC(=O)OC(CC(=O)O)C[N+](C)(C)C (centres undefined) |
| 16.3 | CCCCCCCCC=CCCCCCCCCCC(=O)OC(CC(=O)O)C[N+](C)(C)C (centres undefined) |
| 1.03 | NC(Cc1ccc(O)cc1)C(=O)O (centres undefined) |
| 11.8 | CCCCC=CCCCCCCC(=O)OC(CC(=O)O)C[N+](C)(C)C (centres undefined) |
| 17.4 | CCCCCCCCC=CCCCCCCCC(N)=O |
| 16.3 | CCCCCCCCCCCCCCCC(=O)NCCO |
| 12.6 | CCCCCCCCCCCCCCCC(O)C(N)CO (centres undefined) |
| 8.62 | CCCCCCCCC(=O)OC(CC(=O)O)C[N+](C)(C)C (centres undefined) |
| 18.8 | CCCCCCCCC=CCCCCCCCCCCCC(N)=O |
